Reference: PubChem BioAssay AID489023 (Sanford-Burnham Center for Chemical Genomics, 2010)
pIC50: −log10 of the molar value. Calls of active or inactive are those of the source. How the calls were made is not given here.

System: 697B cells, BCR-induced NF-kB luciferase reporter luminescence
Assay: B-cell receptor NF-kB reporter inhibition – 697B cells, luciferase luminescence, dose response (AID 489023)

SMILES	IC50	pIC50
COc1ccc(S(=O)(=O)Nc2cc3c(C(C)=O)c(C)oc3c3ccccc23)cc1	> 80 µM (inactive)	
O=C(CCCN1C(=O)/C(=C/c2ccccc2Cl)SC1=S)Nc1cccnc1		5.76
Cc1c(NC(=O)/C=C/c2cn(-c3ccccc3)nc2-c2ccccc2)c(=O)n(-c2ccccc2)n1C	> 80 µM (inactive)	
COC(=O)c1c(-c2ccc(N(C)C)cc2)sc2ccc(OC)cc12	> 80 µM (inactive)	
COc1ccc(NC(=O)c2nnn(Cc3cccc(F)c3)c2N)c(OC)c1	> 80 µM (inactive)	
COc1ccc(/C=N/OCC(=O)NC(c2ccccc2)c2ccccc2)cc1OC	> 80 µM (inactive)	
CC(C)(C)c1ccc(-c2noc(CCC(=O)NCc3ccco3)n2)cc1		> 6.80
COc1cccc(/C=C2\SC(=S)N(CCCC(=O)NC3=NCCS3)C2=O)c1	56.3 µM (inactive)	
Cc1cc(C)nc(Sc2ccc([N+](=O)[O-])cc2[N+](=O)[O-])n1		5.71
CCc1ccc2nc(Nc3nc(COC)cc(=O)[nH]3)nc(C)c2c1	> 80 µM (inactive)	
N#Cc1ccccc1COc1ccc(/C=C/C(=O)O)cc1		4.83
CCn1c(=O)cc(SCC(=O)N2CCOCC2)c2ccccc21	> 80 µM (inactive)	
CC1=CC(C)(C)Nc2ccc(OC(=O)C(C)N3C(=O)c4ccccc4C3=O)cc21 (centres undefined)		5.16
CC(C)C(=O)Nc1ccc(NC(=O)c2ccc3c(c2)OCO3)cc1		4.76
Cc1ccc(C(=O)CSc2nnc(COc3cc(C)cc(C)c3)o2)cc1	> 80 µM (inactive)	
COc1cc(C(=O)Nc2cc(C)c(OCC(=O)N3CCOCC3)c(C)c2)cc(OC)c1OC	> 80 µM (inactive)	
CNC(=O)c1cc(Nc2nnc(-c3ccc(O)cc3)c3ccccc23)ccc1OC	> 80 µM (inactive)	
Cc1nn(C(C)(C)C)c(C)c1/C=N/OC(=O)Nc1ccc(Cl)c(Cl)c1		6.13
CCOC(=O)/C=C(\C)Sc1cc(=O)oc2ccccc12		5.79
COc1ccc(/C=C2\SC(=S)N(CCCC(=O)Nc3ccc(O)cc3)C2=O)cc1		5.90
COc1ccc(C(=O)N/N=C/c2sc(N3CCOCC3)nc2-c2ccccc2)cc1OC		4.84
Cc1ccc(NC(=O)C2CCC(CNc3c(N4CCC(C)CC4)c(=O)c3=O)CC2)cc1F (centres undefined)	> 80 µM (inactive)	
Cc1ccc(C(=O)CSc2nnc(COc3cccc(C)c3)o2)cc1	> 80 µM (inactive)	
CC1CC(C)(C)Nc2ccc(OC(=O)c3ccco3)cc21 (centres undefined)		5.04

SMILES	IC50	pIC50
COc1cc(C2C(C#N)=C(N)Oc3cc(N)ccc32)cc(OC)c1OC (centres undefined)	> 80 µM (inactive)	
CC(C)OCCCNC(=O)c1c(N)n(/N=C/c2ccccn2)c2nc3ccccc3nc12	> 80 µM (inactive)	
CCOc1ccc(/C=C2\SC(=S)N(CCC(=O)Nc3ccc(C(=O)O)cc3)C2=O)cc1		5.87
COc1ccc(-c2ccc(N(C)C)cc2)cc1[C@H]1[C@H]2C=CC[C@@H](C)[C@@H]2C(=O)N1Cc1ccccc1	> 80 µM (inactive)	
C=CCOc1ccc(/C=C2\SC(=S)N(CCC(=O)O)C2=O)cc1		6.20
CNC(=O)CSc1nc2nn(-c3ccccc3)c(=O)c-2c2n1CCCCC2	76.9 µM (inactive)	
O=C(CCCN1C(=O)/C(=C/c2ccccc2Cl)SC1=S)NNC(=O)c1ccncc1	25.7 µM (inactive)	
COc1cc(/C(C)=N\NC(N)=S)cc(OC)c1OC	70.7 µM (inactive)	
COc1cc(-c2cc(=O)c3c(O)c(OC)c(OC)c(OC)c3o2)cc(OC)c1OC	> 80 µM (inactive)	
COC(=O)[C@@]12OC[C@]34[C@H]([C@@H](O)[C@@H]1O)[C@@]1(C)C(=O)C(O[C@@H]5OC(CO)[C@@H](O)[C@@H](O)[C@@H]5O)=C[C@@H](C)[C@@H]1C[C@H]3OC(=O)[C@H](OC(=O)/C=C(\C)C(C)(C)OC(C)=O)[C@@H]24 (some centres undefined)		6.38
COc1cc(-c2nc3ccc(N4CCN(C)CC4)cc3[nH]2)cc(OC)c1OC	> 80 µM (inactive)	
O=C(Oc1cccc(/C=N/Nc2nc(Nc3ccccc3)nc(N3CCOCC3)n2)c1)c1ccco1		5.52
CCOc1ccc(NC(=O)CCCc2cc(-c3ccc(OCC)cc3)on2)cc1		5.71
CCOC(=O)Cc1csc(NC(=S)NC(=O)c2ccc(C)cc2)n1		5.23
Cc1ccoc1C(=O)Nc1ccc(CC(=O)O)cc1		5.68
O=C(NNC(=O)c1ccccc1O)c1ccc(Cl)c(S(=O)(=O)N2CCc3ccccc32)c1	> 80 µM (inactive)	
CCN(CC(=O)Nc1c(F)cccc1F)C(=O)C1(c2ccccc2)CC1		4.84
CC1=CC(C)(C)Nc2ccc(OC(=O)CN3C(=O)CCC3=O)cc21		5.07
COc1ccc(-c2ccc(OC)c([C@H]3[C@H]4C=CC[C@@H](C)[C@@H]4C(=O)N3Cc3ccccc3)c2)cc1C	> 80 µM (inactive)	
CC1CCc2c(sc3nc(C(C)(C)C)nc(N4CCN(C(=O)CCl)CC4)c23)C1 (centres undefined)		6.17
COc1ccc(C(=O)n2nc(-c3ccc(Cl)cc3)nc2N)cc1OC		5.89
Cc1cc(C)cc(OCc2nnc(SCC(=O)c3ccccc3)o2)c1	> 80 µM (inactive)	
Cc1nc2cc(-c3ccccc3)nn2c(C)c1CCC(=O)NCc1ccco1	> 80 µM (inactive)	
CCOc1cc2nc(-c3ccc(OC)c(OC)c3)nc(N3CCOCC3)c2cc1OC		5.31

SMILES	IC50	pIC50
Cc1ccc(-c2nn3c(C)nnc3c3ccccc23)cc1S(=O)(=O)NCc1ccco1	29.3 µM (inactive)	
Cc1ccc(-c2nsc3c(N4CCC(C(N)=O)CC4)ncnc23)cc1		5.20
Cc1ccc(C(=O)CSc2nnc(COc3ccccc3)o2)cc1	> 80 µM (inactive)	
Cc1nc(Nc2c(Cl)cccc2Cl)sc1C(=O)Nc1ccccc1	50.1 µM (inactive)	
CCOc1ccc(/C=C2\SC(=S)N(CCCC(=O)NCCCN3CCOCC3)C2=O)cc1		6.37
Cc1ccc(/C=C2\SC(=S)N(CCCC(=O)Nc3cccnc3)C2=O)cc1		6.60
Cn1c(=NC(=O)CCl)sc2ccccc21		6.23
CC(=O)C1=NN(c2ccccc2)C(c2cccs2)N1c1ccc(N(C)C)cc1 (centres undefined)	31.7 µM (inactive)	
CCn1c(=O)cc(OCC(=O)Nc2ccc(OC)c(OC)c2)c2ccccc21	> 80 µM (inactive)	
COc1ccc(-c2ccc(C(C)=O)cc2)cc1[C@H]1[C@H]2C=CC[C@@H](C)[C@@H]2C(=O)N1Cc1ccccc1	> 80 µM (inactive)	
CCOC(=O)C(=CNc1cc(C)ccc1C)C(=O)OCC	49.2 µM (inactive)	
CCc1ccc(/C=C2/SC(=S)N(CCC(=O)Nc3cccnc3)C2=O)cc1		6.07
CCc1ccc(/C=C2/SC(=S)N(CCC(=O)Nc3ccc(C(=O)O)cc3)C2=O)cc1		5.39
CCn1c(=S)[nH]c2cc(S(=O)(=O)N3CCCCC3)ccc21	31 µM (inactive)	
Cc1nc2cc(-c3ccc(Cl)cc3)nn2c(C)c1CCC(=O)NC(C)c1ccc2c(c1)OCCO2 (centres undefined)	23.7 µM (inactive)	
C=CCOc1ccc(NC(=O)C(=O)NCCCn2ccnc2)cc1	> 80 µM (inactive)	
Cc1nc2cc(-c3cccc(F)c3)nn2c(C)c1CCC(=O)NC(C)CCc1ccco1 (centres undefined)		4.86
Cc1ccc(C(=O)NNC(=O)CCCN2C(=O)/C(=C/c3ccccc3Cl)SC2=S)cc1	22 µM (inactive)	
Cc1ccc(-c2cc(C(=O)NCCCN3CCOCC3)no2)cc1		4.94
C=CCOC(=O)COc1cc(C)cc2oc(=O)c3c(c12)CCC3	> 80 µM (inactive)	
Cc1ccc(C(=O)N2CCCC(c3ccc(Cl)cc3)=N2)cc1	> 80 µM (inactive)	
Cc1ccc(Nc2nc(N/N=C\c3ccc4c(c3)OCO4)nc(N3CCOCC3)n2)cc1		5.51
COc1ccc(-c2nc(CSCC(=O)NCc3ccco3)c(C)o2)cc1		5.02
CCOC(=O)N1CCN(CC(=O)Nc2ccc([N+](=O)[O-])cc2C(=O)Nc2ccccc2F)CC1	29.1 µM (inactive)	

SMILES	IC50	pIC50
Cc1ccc(C(=O)C[n+]2cc(-c3ccc(C)cc3)n3c2CCCCC3)cc1	38.9 µM (inactive)	
CCN(CC(=O)Nc1c(F)cccc1F)C(=O)c1cc(S(=O)(=O)N(C)C)ccc1N1CCCC1		4.91
OCCN1CCN(C(=S)c2ccc(-c3ccccc3)cc2)CC1		5.24
COc1ccccc1/C=C1/SC(=S)N(CCC(=O)Nc2cccnc2)C1=O		5.02
COc1ccc(-n2ncc3c(N4CCC(C(N)=O)CC4)ncnc32)cc1	> 80 µM (inactive)	
COc1ccc(/C=C\C(=O)O[C@@H]2C(O)C(O[C@@H]3OC(C)[C@H](O[C@@H]4OCC(O[C@H]5O[C@H](CO)[C@@H](O)C(O)C5O)C(O)C4O)C(O)C3O)[C@H](OC(=O)[C@]34CCC(C)(C)C[C@@H]3C3=CCC5[C@@]6(C)CC(O)C(O[C@@H]7OC(CO)C(O)[C@H](O)[C@H]7O)[C@@](C)(C(=O)O)C6CC[C@@]5(C)[C@]3(CO)CC4)O[C@H]2C)cc1 (some centres undefined)		4.70
O=C(CCl)N(c1ccc(Cl)cc1)c1c[nH]c2ccccc12		6.57
CC1CCN(c2c(NCc3ccc(C(=O)N4c5ccccc5CC4C)cc3)c(=O)c2=O)CC1 (centres undefined)	> 80 µM (inactive)	
Cc1nc2cc(-c3ccccc3)nn2c(C)c1CCC(=O)N1CCC2(CC1)OCCO2	> 80 µM (inactive)	
Cc1nc2cc(-c3ccc(Cl)cc3)nn2c(C)c1CCC(=O)NCc1ccco1	> 80 µM (inactive)	
CCn1c(=O)cc(OCC(=O)NCc2ccc(C)o2)c2ccccc21	> 80 µM (inactive)	
CCOc1ccc(-c2nc(CSCC(=O)NC3CC3)c(C)o2)cc1		6.55
CC(C)(O)/C=C/C(=O)[C@](C)(O)C1[C@H](O)C[C@@]2(C)C3CC=C4C(C[C@H](O)[C@@H](O)C4(C)C)[C@]3(C)C(=O)C[C@]12C (some centres undefined)	35.1 µM (inactive)	
Cc1ccc(NC(=O)O/N=C/c2c(C)nn(C(C)(C)C)c2C)cc1Cl		> 6.80
Nc1ccccc1SCC(=O)Nc1nc(-c2ccccc2)cs1	> 80 µM (inactive)	
CCOc1ccc(-c2cc(CCCC(=O)NCCCOC)no2)cc1	> 80 µM (inactive)	
O=C(CCCN1C(=O)/C(=C/c2ccccc2Cl)SC1=S)NNC(=O)c1ccc(Cl)cc1Cl		5.51
CSC1CCCCC1(O)CSc1nc2c(cc1C#N)CCCC2 (centres undefined)	> 80 µM (inactive)	
NC(=O)C1CCN(C(=O)COc2ccc3ccccc3c2Br)CC1	39.4 µM (inactive)	
Cn1c(=O)n(C)c2cc(C(=O)Nc3ccc4c(c3)OCO4)ccc21	35.2 µM (inactive)	
CCN(CC)CCOC(=O)c1ccc(NC(=O)CCCN2C(=O)S/C(=C/c3ccc(OC)cc3)C2=S)cc1		5.68
COc1ccc(-c2n(Cc3ccccc3)c3ccccc3[n+]2Cc2ccccc2)cc1	> 80 µM (inactive)	
